Data on two molecules can be found in patent US20030215462A1, “Use of UGT inhibitors to increase bioavailability” (priority 2001, published 2003).

Series [1] relates to UGT enzymes of pooled human jejunum microsomes. Put plainly: Inhibition of raloxifene glucuronidation (G1, G2) in pooled human jejunum microsomes. The series is classed as biochemical. The note with it: jejunum HJ61; inhibitor 50 μM. The protocol: Compounds were eluted using a binary solvent gradient system. […] Solvent B was methanol. […] Detection was at 280 nm.
Standardized incubations utilized […] microsomal protein, 1 mM UDPGA and a 30 min incubation time.

Series [2] deals with T1, UGT enzymes of human liver microsomes (Homo sapiens, UniProt P16662).
T1 construct: residual metabolism (percentage of control), zidovudine glucuronidation; other: liver lot 062101; residual metabolism (percentage of control), zidovudine glucuronidation; residual metabolism (percentage of control)
T1 sequence (P16662 1-529): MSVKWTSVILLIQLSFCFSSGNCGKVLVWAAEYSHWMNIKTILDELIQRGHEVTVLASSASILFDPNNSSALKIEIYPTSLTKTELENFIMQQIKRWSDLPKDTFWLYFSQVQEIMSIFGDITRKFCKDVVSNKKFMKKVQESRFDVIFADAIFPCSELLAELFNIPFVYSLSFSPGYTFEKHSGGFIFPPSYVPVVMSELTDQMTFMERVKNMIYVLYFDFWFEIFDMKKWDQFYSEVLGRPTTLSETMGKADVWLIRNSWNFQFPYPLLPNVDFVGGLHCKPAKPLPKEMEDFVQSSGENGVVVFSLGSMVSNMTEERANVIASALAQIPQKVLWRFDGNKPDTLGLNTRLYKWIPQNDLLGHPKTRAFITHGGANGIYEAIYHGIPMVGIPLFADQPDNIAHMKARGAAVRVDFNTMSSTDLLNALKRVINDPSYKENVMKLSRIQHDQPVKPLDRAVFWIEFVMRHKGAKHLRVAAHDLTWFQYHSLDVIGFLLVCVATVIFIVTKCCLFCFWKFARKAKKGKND
Put plainly: Inhibition of zidovudine glucuronidation in human liver microsomes. Particulars: liver lot 062101. The series is classed as biochemical. The protocol:
Compounds were eluted using a binary solvent gradient system where solvent A was dilute phosphoric acid (pH 3) and solvent B was acetonitrile.
Standardized incubations utilized 500 μM zidovudine substrate, 1 mg/ml microsomal protein, 5 mM UDPGA and a 30 min incubation time. […] Int.
(In general: Microsomes from liver hold many membrane-bound enzymes, among them those of drug oxidation.)

Series [3] deals with UGT enzymes of human liver microsomes. The series is described as follows: Inhibition of estradiol (E2) glucuronidation in human liver microsomes. The series is classed as biochemical. Particulars: liver 062101; E2 50 μM; inhibitor 50 μM. The text has this:
(§1) Compounds were eluted using a binary solvent gradient system where solvent A was dilute phosphoric acid (pH 3) and solvent B was 80:20 acetonitrile-methanol. […] Detection was at 280 nm.

The test system of series [4] is T2, UGT enzymes of human liver microsomes.
T2 construct: residual metabolism (% of control), E2-17-β-D-glucuronide; other: liver 032101; residual metabolism (% of control), E2-17-β-D-glucuronide
The description is as above. The series is classed as biochemical. Particulars: liver 032101, E2 50 μM.
Description: as §1

In series [5] the test system is T3, UGT enzymes of human liver microsomes.
T3 construct: residual metabolism (% of control), E2-3-β-D-glucuronide; other: liver 032101; residual metabolism (% of control), E2-3-β-D-glucuronide
The series is described as above. The series is classed as biochemical. Particulars: liver 032101, E2 50 μM.
Description: as §1

In series [6] the test system is UGT enzymes of pooled human jejunum microsomes. The series is described as follows: Inhibition of 2ME2 glucuronidation (MG1) in pooled human jejunum microsomes. The note with it: jejunum HJ61, 2ME2 50 μM. The series is classed as biochemical.
Description: as §1

Series [7] concerns the target T4, UGT1A8 (Homo sapiens, UniProt Q9HAW9).
T4 sequence (Q9HAW9 26-530): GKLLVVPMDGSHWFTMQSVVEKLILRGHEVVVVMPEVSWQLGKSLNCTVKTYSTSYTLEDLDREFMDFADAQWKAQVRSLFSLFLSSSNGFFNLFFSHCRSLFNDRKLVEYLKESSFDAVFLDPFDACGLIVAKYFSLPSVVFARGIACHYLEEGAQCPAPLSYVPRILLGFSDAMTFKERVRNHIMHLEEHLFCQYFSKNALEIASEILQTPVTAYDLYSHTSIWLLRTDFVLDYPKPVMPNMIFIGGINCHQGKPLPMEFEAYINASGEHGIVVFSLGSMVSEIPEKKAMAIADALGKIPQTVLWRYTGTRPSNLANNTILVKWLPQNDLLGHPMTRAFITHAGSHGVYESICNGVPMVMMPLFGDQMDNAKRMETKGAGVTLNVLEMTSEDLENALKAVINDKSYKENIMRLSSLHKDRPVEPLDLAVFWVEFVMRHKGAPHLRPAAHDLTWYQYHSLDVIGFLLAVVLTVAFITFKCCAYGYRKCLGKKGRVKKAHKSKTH
The series is described as follows: Inhibition of raloxifene glucuronidation by recombinant UGT1A8 Supersomes. The note with it: human, Supersomes with recombinant human UGT1A8, pH 7.5, probe raloxifene 50 μM, inhibitor 50 μM.
Description: (§2) Compounds were eluted using a binary solvent gradient system. Solvent A was water brought to pH 8 with NH4OH. Solvent B was methanol. Solvent flow rate was 1 ml/min and the column temperature was maintained at 50° C. Detection was at 280 nm. […] The system was then returned to the initial conditions and equilibrated for 3 min.

The target of series [8] is T5, UGT1A9 (Homo sapiens, UniProt O60656).
T5 sequence (O60656 26-530): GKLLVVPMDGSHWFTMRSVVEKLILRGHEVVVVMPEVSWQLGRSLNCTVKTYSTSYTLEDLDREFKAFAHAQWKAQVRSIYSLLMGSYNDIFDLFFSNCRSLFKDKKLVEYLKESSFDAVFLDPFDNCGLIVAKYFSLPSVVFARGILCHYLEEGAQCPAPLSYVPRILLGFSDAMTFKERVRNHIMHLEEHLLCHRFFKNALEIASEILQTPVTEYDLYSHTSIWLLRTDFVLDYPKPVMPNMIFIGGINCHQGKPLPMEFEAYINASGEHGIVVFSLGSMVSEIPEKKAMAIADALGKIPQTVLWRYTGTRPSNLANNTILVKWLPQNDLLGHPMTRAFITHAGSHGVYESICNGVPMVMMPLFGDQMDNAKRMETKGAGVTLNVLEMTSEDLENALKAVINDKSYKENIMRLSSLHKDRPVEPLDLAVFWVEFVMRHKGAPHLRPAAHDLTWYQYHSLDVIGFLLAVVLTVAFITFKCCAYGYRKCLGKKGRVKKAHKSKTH
Put plainly: Inhibition of raloxifene glucuronidation by recombinant UGT1A9 Supersomes. The note with it: for activity at 15 min, 50 µM: human, Supersomes with recombinant human UGT1A9, pH 7.5, probe raloxifene 50 μM.
Description: as §2

Turning to `O=C(O[C@@H]1Cc2c(O)cc(O)cc2O[C@@H]1c1ccc(O)c(O)c1)c1cc(O)c(O)c(O)c1` [Epicatechin gallate], in series [1], the “% of control metabolism, raloxifene G1” value is recorded as 34 (3) %. In series [1], the “% of control metabolism, raloxifene G2” value is 40 (3) %. Further, the “residual metabolism (percentage of control), zidovudine glucuronidation” value in series [2] (inhibitor 50 μM) was 80 (1) %; in series [2] (inhibitor 100 μM) it was 67 (1) %; in series [2] (inhibitor 200 μM) it was 60 (2) %; in series [2] (inhibitor 500 μM), 28 (1) %. In addition, the results for the “residual metabolism (% of control), E2-3-β-D-glucuronide” value in series [3] and in series [5] (inhibitor 50 μM) were 34 (1) % and 27 (1) %, respectively. The figures for the “residual metabolism (% of control), E2-17-β-D-glucuronide” value in series [3] and in series [4] (inhibitor 50 μM) were 67 (1) % and 83 (0) %, respectively. Also, the figures for the “residual metabolism (% of control), 2ME2 MG1” value in series [6] (inhibitor 25 μM), in series [6] (inhibitor 50 μM) and in series [6] (inhibitor 100 μM) were 76 (4) %, 63 (1) % and 47 (2) %, respectively.
With `CCCCCCCCOC(=O)c1cc(O)c(O)c(O)c1` [Octyl gallate], the “% of control metabolism, raloxifene G1” value in series [1] is recorded as 80 (3) %. The “% of control metabolism, raloxifene G2” value in series [1] is given as 137 (9) %. Further, the “residual metabolism (percentage of control), zidovudine glucuronidation” value in series [2] (inhibitor 500 μM) is 54 (3) %; in series [2] (inhibitor 1000 μM), 17 (1) %. The figures for the “residual metabolism (% of control), E2-17-β-D-glucuronide” value in series [4] (inhibitor 50 μM) and in series [4] (inhibitor 100 μM) were 88 (1) % and 74 (2) %, respectively. For the same molecule, the “residual metabolism (% of control), E2-3-β-D-glucuronide” value was 53 (1) % in series [5] (inhibitor 50 μM) and 33 (2) % in series [5] (inhibitor 100 μM). Further, the “residual metabolism (% of control), 2ME2 MG1” value in series [6] (inhibitor 50 μM) is 121 (7) %; in series [6] (inhibitor 100 μM) it was 58 (3) %. Also, the activity at 15 min, 50 µM in series [7] (formation of glucuronide G1, % of control metabolism, raloxifene G1, UGT1A8) is 116%; in series [7] (formation of glucuronide G2, % of control metabolism, raloxifene G2, UGT1A8), 95%; in series [8] (formation of glucuronide G1, % of control metabolism, raloxifene G1, UGT1A9, inhibitor 50 μM), 84%; in series [8] (formation of glucuronide G2, % of control metabolism, raloxifene G2, UGT1A9, inhibitor 50 μM), 70%. The “inhibition of raloxifene glucuronidation, in words” value in series [8] (UGT1A9) was “very poor inhibitor”. Moreover, in series [8] (second line (G2, metabolite not given), inhibitor 50 μM, raloxifene 50 μM, 250 μg/ml Supersomes, 1 mM UDPGA, 15 min), the “Inhibition of raloxifene glucuronidation, UGT1A9, second line per inhibitor (G2)” value was 70 (4).
